Results published in paper PMC12679539, “Synthesis and evaluation of nitroheterocyclic aromatic adamantane amides with trypanocidal activity. Part II” (RSC Medicinal Chemistry, 2025).
Read-outs that look alike come from different tables or passages of the source.

Assays:
[1] = tested on: bloodstream-form Trypanosoma brucei; experiment: Activity against bloodstream-form Trypanosoma brucei (Alamar Blue growth inhibition); assay type: cell-based, Trypanosoma brucei (strain 427); conditions: for S.I. (selectivity index): ratio of IC50 values obtained with L6 cells and T. brucei
Description: (§1) Bloodstream form T. brucei (strain 427) were cultured at 37 °C in modified Iscove's medium. Trypanocidal activity was assessed by growing parasites in microtiter plates in the presence of various drug concentrations. […] The plates were incubated for 48 hours at 37 °C and 20 μL Alamar Blue was then added to each well. After an additional overnight incubation, the fluorescence was determined using a Gemini fluorescent plate reader (Molecular Devices). Inhibition of growth was calculated by comparison with control values and IC50 and IC90 values were determined in triplicate using linear regression analysis.

L6 cells [2] = experiment: Cytotoxic activity against rat skeletal myoblast L6 cells (Alamar Blue); assay type: cell-based; conditions: 120 h, cytotoxicity, 5 days
Description: The cytotoxicity against mammalian cells was assessed using microtitre plates. Briefly, L6 cells (a rat skeletal muscle line) were seeded at 1 × 10^4 mL^−1 in 200 μL of RPMI-1640 growth medium (with 10% fetal calf serum) containing 7 different compound concentrations in a range previously established to encompass both the IC50 and IC90 values. The plates were incubated for 5 days at 37 °C and 20 μL Alamar Blue (Biosource Ltd, Wilton, North Yorkshire England.) was then added to each well. After an additional 8 hours incubation, the fluorescence was determined using a Gemini fluorescent plate reader (Molecular Devices). Inhibition of growth was calculated by comparison with control values and IC50 and IC90 values were determined in triplicate using linear regression analysis.

T. cruzi epimastigotes [3] = experiment: Activity against Trypanosoma cruzi epimastigotes (Alamar Blue growth inhibition); assay type: cell-based, Trypanosoma cruzi (strain CL Brener); conditions: CL Brener
Description: as §1, with “Trypanocidal” for “Bloodstream form T. brucei (strain 427) were cultured at 37 °C in modified Iscove's medium. Trypanocidal”, “4 days” for “48 hours”, “28” for “37”, “Blue (Biosource UK Ltd)” for “Blue”, “3 days” for “overnight”

[4] = tested on: L. infantum promastigotes; experiment: Activity against Leishmania infantum promastigotes (resazurin assay); assay type: cell-based, Leishmania infantum (MHOM/MA/67/ITMAP-263); conditions: for IC50: Leishmania infantum, promastigotes, 72 h, 95% CI in brackets
Description: Promastigotes from the L. infantum strain (MHOM/MA/67/ITMAP-263) were cultivated in 5 ml of Schneider's insect medium, which was supplemented with 10% heat-inactivated fetal bovine serum (FBS), 200 U ml^−1 of penicillin/streptomycin, 6 μg ml^−1 of phenol red, and 5 mM of HEPES. The cultures were maintained in an incubator at 27 °C and diluted to a concentration of 2 × 10^5 cells per ml every 5 days. For the assays the parasites used were equivalent to late/log with two or three days of culture.
The efficacy of the compounds against L. infantum promastigotes was evaluated using a resazurin-based assay. Parasites were added to 100 μl of serial dilutions of the compounds in supplemented complete medium at a cell density of 5 × 10^5 ml^−1. As a quality control, a dose–response curve with the antileishmanial drug miltefosine was included in all assays. The final volume of each assay was 200 μl per well, and each condition was tested in duplicate. After a 72-hour incubation under specific conditions for each parasite, 20 μl of a 0.5 mM resazurin solution was added, and the plates were incubated for an additional 4 hours under the same conditions. Fluorescence was measured at 544 nm for excitation and 590 nm for emission using a Synergy 2 Multi-Mode Reader (Biotek, Winooski, VT, USA). Results were expressed as the percentage of parasite growth inhibition compared to controls (untreated parasites) and represent the average of at least three independent experiments. The effect was evaluated by determining the IC50 value (the concentration required to inhibit 50% growth), calculated using non-linear regression curves via GraphPad Prism version 8.1.1 for Windows (GraphPad Software, San Diego, CA, USA).

[5] = tested on: L. infantum intracellular amastigotes; experiment: Activity against intracellular L. infantum amastigotes in THP-1 derived macrophages (luciferase); assay type: cell-based, Leishmania infantum (MHOM/MA/67/ITMAP-263); conditions: for inhibition at 10 µM / IC50: Leishmania infantum; for inhibition at 10 µM: read-out: L. infantum (intracellular amastigotes) % of growth inhibition at 10 μM ± ST DEV; for IC50: read-out: L. infantum (intracellular amastigotes) IC50 (μM), 95% CI
Description: Leishmania infantum Luciferase-expressing L. infantum (strain MHOM/MA/67/ITMAP-263) axenic amastigotes were cultured in MAA/20 medium at 37 °C with 5% CO2, as described by Sereno et al. 1998.[26] The parasites were maintained in 5 mL T25 ventilated flasks and subcultured every seven days at a concentration of 1 × 10^6 cells per mL.
The activity against intracellular amastigotes of L. infantum was evaluated using a modified method described by Santarem, Tavares, and Cordeiro-da-Silva (2019).[27] THP-1 cells were differentiated into macrophages using PMA, as previously outlined. The differentiated macrophages were then infected with L. infantum axenic amastigotes expressing episomal luciferase at a macrophage-to-amastigote ratio of 1 : 10 for four hours at 37 °C in a 5% CO2 atmosphere. After this incubation, non-internalized parasites were washed away, and various concentrations of test compounds were added in a final volume of 100 μL. A dose–response curve for miltefosine was included in all assays to serve as a quality control. Each experimental condition was tested in quadruplicate. After 72 hours of incubation, the medium was replaced with 100 μL of PBS, and 25 μL of Glo-lysis buffer from the Steady-Glo Luciferase Assay System (Promega, Madison, WI, USA) was added. The plates were then agitated at 100 rpm for 10 minutes at room temperature. Following this, 30 μL of the Steady-Glo reagent (Promega, Madison, WI, USA) was added, and the mixture was incubated for 15 minutes in the dark under the same conditions. A total of 140 μL from each well was transferred to white-bottom 96-well plates, and luminescence intensity was measured using a Synergy 2 Multi-Mode Reader (Biotek, Winooski, VT, USA). The antileishmanial effect was assessed by comparing the results with those from non-treated infected cells. The IC50 value were determined through non-linear regression analysis using GraphPad Prism version 8.1.1 for Windows (GraphPad Software, San Diego, CA, USA). Results represent the average of at least three independent experiments.

[6] = Cytotoxicity on THP-1-derived macrophages (MTT assay); assay type: cell-based; conditions: human, THP-1-derived macrophages (PMA-differentiated), value or interval
Description: The THP-1 cell line, a human leukemia line (ATCC® TIB-202™), was cultured in RPMI-1640 medium supplemented with 10% heat-inactivated fetal bovine serum (FBS), 2 mM. L-Glutamine, 100 IU mL^−1 penicillin/streptomycin, and 20 mM HEPES. The cells were maintained in a humidified incubator at 37 °C with 5% CO2. Subculturing was performed every three days, using 20 mL of media at a concentration of 2 × 10^5 cells per mL in a T75 flask. All cell culture reagents were purchased from Lonza Bioscience (Morrisville, NC).
The cytotoxicity of the compounds on THP-1-derived macrophages was evaluated using the colorimetric MTT assay (3-(4,5-dimethylthiazol-2-yl)-2,5-diphenyltetrazolium bromide), as described in Magoulas et al. (2021).[28] THP-1 cells were suspended in complete RPMI medium at a density of 1 × 10^6 cells per mL, and 100 μL of this suspension was seeded into each well of a 96-well plate. The cells were differentiated into macrophages by adding 40 ng mL^−1 of phorbol-myristate 13-acetate (PMA, Sigma, Saint Louis, MI, USA) for 24 hours, followed by replacement with fresh medium for an additional 24 hours. Subsequently, the cells were incubated with 100 μL of various compounds, diluted in complete RPMI medium, at concentrations ranging from 100 to 12.5 μM. Each condition was tested in triplicate. After 72 hours of incubation at 37 °C with 5% CO2, the medium was removed, and 200 μL of a 0.5 mg mL^−1 MTT solution, diluted in RPMI, was added to each well. The plates were incubated for an additional 4 hours. Following this incubation, 160 μL of the medium was removed and replaced with 160 μL of 2-propanol. Absorbance was measured at 570 nm using a Synergy 2 Multi-Mode Reader (Biotek, Winooski, VT, USA). Cytotoxicity was determined by presenting the CC50 (the concentration of the drug that reduces cell viability by 50%) interval or by calculating the CC50 value through non-linear regression analysis using GraphPad Prism version 8.1.1 for Windows (GraphPad Software, San Diego, CA, USA). The results represent the average of at least three independent experiments.

[7] = tested on: T. cruzi intracellular amastigotes; experiment: microbe, parasite or virus in culture; assay type: cell-based, Trypanosoma cruzi CL Brener PpyRE9h:mScarlet; conditions: Trypanosoma cruzi, 120 h; in HeLa cells, 5 days
Description: Assays were performed in 96-well black (clear bottom) microtitre plates (Corning Inc.). HeLa ^† cells were seeded at 10^4 per well, incubated for 3 days, and then infected with T. cruzi CL Brener PpyRE9h : mScarlet[25] culture form trypomastigotes (1 : 1 multiplicity of infection). After 16 hours, extracellular parasites were removed by washing in growth medium (×3), test compounds were added, and the plates incubated for 5 days. Fluorescence intensities were then determined using a BMG FLUOstar Omega plate reader (ex 545 nm, em 590 nm), and the data analysed using GraphPad Prism 9.0 software. The values were expressed as IC50/90 ± SD and are the mean of triplicate experiments.

L6 cells [8] = tested on: L6 cells; parameters: method as in PMID 26479031; conditions: cytotoxicity; cited from earlier work
[9] = tested on: bloodstream-form Trypanosoma brucei; conditions: read-out: T. brucei IC50; cited from earlier work
T. cruzi epimastigotes [10] = conditions: read-out: T. cruzi (epimastigotes) IC50; cited from earlier work

For `O=C(NCc1ccc(C2C3CC4CC(C3)CC2C4)cc1)c1ccc([N+](=O)[O-])o1` (centres unmarked) [2b, N-[4-(2-Adamantyl)benzyl]-5-nitrofuran-2-carboxamide], the IC50 ([1]; Trypanosoma brucei, bloodstream form, concentration that inhibits growth by 50%, read-out: T. brucei IC50) was 0.017 ± 0.003 µM, the IC90 ([1]; Trypanosoma brucei, bloodstream form, concentration that inhibits growth by 90%, read-out: T. brucei IC90) was 0.031 ± 0.001 µM and the “S.I. (selectivity index)” value [1] was 95. It also gave an IC50 (L6 cells [2]) of 1.6 ± 0.1 µM, an IC50 (T. cruzi epimastigotes [3]) of 0.56 ± 0.02 µM and an IC90 (T. cruzi epimastigotes [3]) of 1.2 ± 0.02 µM. For the same compound, the IC50 [4] was 0.09 µM, the inhibition at 10 µM ([5]; THP-1, 72 h) was 84.6 ± 15.6% and the IC50 ([5]; THP-1, 72 h) was 3.97 µM. It also gave a CC50 at 72 h [6] of 12.5 to 25 µM.
`O=C(Cn1ccnc1[N+](=O)[O-])NCc1ccccc1` [Bzn, benznidazole, reference compound] gave an IC50 (T. cruzi epimastigotes [3]) of 5.4 ± 0.2 µM, an IC50 [7] of 1.04 ± 0.32 µM and an IC90 [7] of 2.54 ± 0.81 µM. For the same compound, the IC50 (L6 cells [8]) was 510 ± 22 µM.
For `CCCCCCCCCCCCCCCCOP(=O)([O-])OCC[N+](C)(C)C` [MF, miltefosine, reference compound], the IC50 [4] was 11.9 µM, the “SI (promastigotes) CC50/Li IC50” value ([4]; THP-1 CC50 / L. infantum promastigote IC50) was 2.5 and the inhibition at 10 µM ([5]; THP-1, 72 h) was 92 ± 5%. For the same compound, the IC50 ([5]; THP-1 derived macrophages, 72 h, 95% CI in brackets) was 2.65 µM, the “SI (intracellular amastigotes) CC50/Li ia IC50” value ([5]; THP-1 CC50 / L. infantum intracellular amastigote IC50) was 11.3 and the CC50 at 72 h [6] was 30 µM.
For `CC1CS(=O)(=O)CCN1/N=C/c1ccc([N+](=O)[O-])o1` (centres unmarked) [Nfx, nifurtimox], the “S.I. (selectivity index)” value [1] is listed as 7, the IC50 [9] is listed as 4.4 ± 0.7 µM and the IC50 (T. cruzi epimastigotes [10]) is listed as 3.1 ± 0.5 µM.
